# Results as given in US10471059B2, “Compositions and methods of using tyrosine kinase inhibitors” (YALE UNIVERSITY, priority 2015, dated 2019).
# “Also recorded” adds a separate entry of the source. Where two headings read alike, the source gives them in different places. Marks after values point to notes of the source that are not given here.
# How the values were obtained:
# [1] = test system: WT and Ptpn11^D61G/+ mice; test: Echocardiography, postnatal dasatinib treatment; format: in vivo; conditions: postnatal 0.1 mg/kg/day i.p. from P10; WT mice; P42; n = 6; Mean ± SEM
# Method: Dasatinib Treatment—N-(2-chloro-6-methylphenyl)-2-[[6-[4-(2-hydroxyethyl)-1-piperazinyl]-2-methyl-4-pyrimidinyl]amino]-5-thiazole carboxamide monohydrate (dasatinib, BMS-354825) was purchased from Biovision. dasatinib was dissolved in DMSO at a concentration of 10 mg/ml, then resuspended in vehicle (1× Dulbecco's PBS) at a concentration of 200 μg/ml. […] And then, injection was continued or discontinued for 2 weeks, Vehicle-injected mice served as control, Body weight was measured weekly and echocardiography was performed at P42 (6-weeks) and P56 (8-weeks).
# Vehicle-injected mice served as control.
# [2] = test system: Ptpn11^D61G/+ mice; test: Heart weight and histology (Masson's trichrome) after postnatal dasatinib; format: in vivo; conditions: NS mice
# Method: FIG. 15, comprising FIG. 15a-15j, is a panel of images showing cardiomyopathy and cardiac fibrosis in Ptpn11^D61G/+ mice rescued by dasatinib. […] FIG. 15e is a graph showing relative expression of fibrosis marker gene, Col1a2. […] FIG. 15f is a graph showing relative expression of fibrosis marker gene, Col3a1. FIG. 15g is a graph showing relative expression of cardiac fetal gene, Myh6 (αMHC). FIG. 15h is a graph showing relative expression of cardiac fetal gene, Myh7 (βMHC). FIG. 15i is a graph showing relative expression of cardiac fetal gene, Anf. FIG. 15j is a graph showing relative expression of cardiac fetal gene, Bnp. The genes were measured by quantitative RT-PCR (n=6 for each group). […] (Two-way ANOVA test).
# [3] = test system: WT and Ptpn11^D61G/+ mice; test: Liver damage (H&E histology, serum ALT) after postnatal dasatinib; conditions: postnatal 0.1 mg/kg/day; wild type or NS mice; monohydrate
# Description: All data present mean±SEM. *, p<0.05; ***, p<0.001. (n=7˜10 for each group; Two-way ANOVA test).
# Histology—Heart, liver and spleen were isolated from vehicle- or dasatinib-treated wild type and NS mice. Tissues were fixed in 4% paraformaldehyde in phosphate-buffer saline (PBS), processed for paraffin sections and stained with hematoxylin and eosin (H&E) or Masson's Trichrome. Tissue images were obtained under bright field microscopy (Olympus BX51, Yale Liver Center).
# [4] = test system: WT and Ptpn11^D61G/+ mice; conditions: for % EF (ejection fraction) / % FS (fractional shortening) / IVS, d (Intraventricular septum wall thickness, diastole) / IVS, s (Intraventricular septum wall thickness, systole) / LV vol, d (left ventricle volume, diastole) / LV vol, s (left ventricle volume, systole) / LVID, d (left ventricular internal dimension, diastole) / LVID, s (left ventricular internal dimension, systole) / LVPW, d (left ventricular posterior wall thickness, diastole) / LVPW, s (left ventricular posterior wall thickness, systole): n = 8, Mean ± SEM;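 on all read-outs here: echocardiography in isoflurane-anesthetized mice, M-mode tracings averaged over three to six heartbeats, FS derived from diastolic and systolic LVID, vehicle-injected mice as control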
# Method: Echocardiographic Studies—Cardiac dimensions and function were analyzed by echocardiography using a Vevo 770 console, Mice were lightly anesthetized with inhaled isoflurane (0.2% in O2). All measurements were obtained from three to six consecutive cardiac cycles, and the averaged values used for analysis. Interventricular septum wall (IVS), left ventricular internal dimension (LVID) and left ventricular posterior wall thickness (LVPW) in both end-diastolic (d), end-systolic (s) were measured from the and M-mode tracings. Diastolic measurements were performed using the leading-edge method of the American Society of Echocardiography. For TM-mode measurements, left ventricular end-diastolic volume (LV vol,d) and end-systolic volume (LV vol,s) were calculated. Ejection fraction percentage (EF) was calculated as [(LVvol,d−LVvol,s)/VLvol,d]×100, and fractional shortening percentage was calculated as [(LVID,d−LVID,s)/LVID,d]×100.
# Animal Handling—Ptpn11^D61G/+ mice were provided from Dr. Benjamin Neel (University of Toronto, Toronto) and were genotyped as described previously^9. Briefly, Ptpn11^D61G/+ male mice were crossed with wild type C75BL/6×SV 129 female mice and their offspring were genotyped by PCR and digestion with AgeI for the D61G allele. Dasatinib (Biovision) was suspended in vehicle (1% DMSO in phosphate buffer saline), For prenatal treatment, dasatinib was injected i.p. (0.1 mg/kg body weight) into pregnant mice daily, beginning on gestational day 7.5 (E7.5) continuing (in nursing females) until postnatal day 9. Vehicle-injected mice served as control. Beginning at P10, dasatinib or vehicle alone was injected (i.p.) directly into pups daily, until 8-weeks after birth. For postnatal treatment, dasatinib was injected (i.p.) into pups at P10, until 6-weeks after birth; injection was discontinued for 2-weeks.
# Echocardiography—Mice were anesthetized in a sealed plastic chamber with 1% isofurane in oxygen until immobile, and then were transferred onto a heated procedure board (37° C.). Animal were kept anesthetized with 1% isoflurane supplied by a nose cone connected to the isoflurane vaporizer during the entire procedure. The scan head was placed on the chest of the mouse and stable image signals (both B mode and M mode) were acquired and data analyzed with Vevo 770 (VisualSonics). Systolic and distolic left ventricle peripheral wall thickness, chamber diameter and interventricular wall thickness were measured with M mode image. Percentage of ejection fraction (EF) and fractional shortening (FS) were calculated.
# [5] = prenatal 0.1 mg/kg i.p. daily from E7.5, Ptpn11D61G/+ mice, P42
# [6] = prenatal 0.1 mg/kg i.p. daily from E7.5, WT mice, P42
# [7] = prenatal 0.1 mg/kg i.p. daily from E7.5 continued to P56, Ptpn11D61G/+ mice, P56
# [8] = prenatal 0.1 mg/kg i.p. daily from E7.5 continued to P56, WT mice, P56
smiles,measurement,setting,value
"Cc1nc(Nc2ncc(C(=O)Nc3c(C)cccc3Cl)s2)cc(N2CCN(CCO)CC2)n1.O [Dasatinib, N-(2-chloro-6-methylphenyl)-2-[[6-[4-(2-hydroxyethyl)-1-piperazinyl]-2-methyl-4-pyrimidinyl]amino]-5-thiazole carboxamide monohydrate]",% EF (ejection fraction),[1],65.70 ± 0.82%
same,% FS (fractional shortening),[1],35.52 ± 0.69%
same,"IVS, d (Intraventricular septum wall thickness, diastole)",[1],0.71 ± 0.05 mm
same,"IVS, s (Intraventricular septum wall thickness, systole)",[1],1.13 ± 0.06 mm
same,"LV vol, d (left ventricle volume, diastole)",[1],65.87 ± 2.78 mm^3
same,"LV vol, s (left ventricle volume, systole)",[1],22.24 ± 0.63 mm^3
same,"LVID, d (left ventricular internal dimension, diastole)",[1],3.80 ± 0.11 mm
same,"LVID, s (left ventricular internal dimension, systole)",[1],2.45 ± 0.05 mm
same,"LVPW, d (left ventricular posterior wall thickness, diastole)",[1],0.81 ± 0.04 mm
same,"LVPW, s (left ventricular posterior wall thickness, systole)",[1],1.25 ± 0.07 mm
same,cardiac fibrosis at the histological level,[2]; P56,markedly reduced
same,"pathologic cardiac phenotypes (heart weight, dilated cardiomyopathy, myofibrillar disorganization)","[2]; P56, monohydrate",profound reversal; also recorded: rescued
same,liver damage,[3],no evidence of liver damage; also recorded: does not induce liver damage
same,% EF (ejection fraction),[4]; [5],62.62 ± 2.75 %
same,% FS (fractional shortening),[4]; [5],34.29 ± 2.09 %
same,"IVS, d (Intraventricular septum wall thickness, diastole)",[4]; [5],0.65 ± 0.06 mm
same,"IVS, s (Intraventricular septum wall thickness, systole)",[4]; [5],0.97 ± 0.10 mm
same,"LV vol, d (left ventricle volume, diastole)",[4]; [5],60.93 ± 3.75 mm^3
same,"LV vol, s (left ventricle volume, systole)",[4]; [5],24.21 ± 1.56 mm^3
same,"LVID, d (left ventricular internal dimension, diastole)",[4]; [5],3.61 ± 0.12 mm
same,"LVID, s (left ventricular internal dimension, systole)",[4]; [5],2.32 ± 0.12 mm
same,"LVPW, d (left ventricular posterior wall thickness, diastole)",[4]; [5],0.70 ± 0.04 mm
same,"LVPW, s (left ventricular posterior wall thickness, systole)",[4]; [5],1.12 ± 0.07 mm
same,% EF (ejection fraction),[4]; [6],64.24 ± 2.52%
same,% FS (fractional shortening),[4]; [6],34.70 ± 1.82%
same,"IVS, d (Intraventricular septum wall thickness, diastole)",[4]; [6],0.67 ± 0.04 mm
same,"IVS, s (Intraventricular septum wall thickness, systole)",[4]; [6],1.08 ± 0.09 mm
same,"LV vol, d (left ventricle volume, diastole)",[4]; [6],67.51 ± 2.54 mm^3
same,"LV vol, s (left ventricle volume, systole)",[4]; [6],22.26 ± 1.95 mm^3
same,"LVID, d (left ventricular internal dimension, diastole)",[4]; [6],3.93 ± 0.08 mm
same,"LVID, s (left ventricular internal dimension, systole)",[4]; [6],2.49 ± 0.09 mm
same,"LVPW, d (left ventricular posterior wall thickness, diastole)",[4]; [6],0.76 ± 0.05 mm
same,"LVPW, s (left ventricular posterior wall thickness, systole)",[4]; [6],1.13 ± 0.04 mm
same,% EF (ejection fraction),[4]; [7],51.83 ± 1.60%
same,% FS (fractional shortening),[4]; [7],26.22 ± 1.01%
same,"IVS, d (Intraventricular septum wall thickness, diastole)",[4]; [7],0.70 ± 0.03 mm
same,"IVS, s (Intraventricular septum wall thickness, systole)",[4]; [7],1.02 ± 0.05 mm
same,"LV vol, d (left ventricle volume, diastole)",[4]; [7],73.00 ± 3.42 mm^3
same,"LV vol, s (left ventricle volume, systole)",[4]; [7],37.43 ± 2.08 mm^3
same,"LVID, d (left ventricular internal dimension, diastole)",[4]; [7],4.06 ± 0.11 mm
same,"LVID, s (left ventricular internal dimension, systole)",[4]; [7],3.08 ± 0.07 mm
same,"LVPW, d (left ventricular posterior wall thickness, diastole)",[4]; [7],0.68 ± 0.02 mm
same,"LVPW, s (left ventricular posterior wall thickness, systole)",[4]; [7],0.93 ± 0.06 mm
same,% EF (ejection fraction),[4]; [8],50.96 ± 2.38 %
same,% FS (fractional shortening),[4]; [8],25.84 ± 1.47 %
same,"IVS, d (Intraventricular septum wall thickness, diastole)",[4]; [8],0.69 ± 0.04 mm
same,"IVS, s (Intraventricular septum wall thickness, systole)",[4]; [8],1.07 ± 0.05 mm
same,"LV vol, d (left ventricle volume, diastole)",[4]; [8],79.32 ± 1.22 mm^3
same,"LV vol, s (left ventricle volume, systole)",[4]; [8],40.34 ± 1.60*** mm^3
same,"LVID, d (left ventricular internal dimension, diastole)",[4]; [8],4.21 ± 0.07 mm
same,"LVID, s (left ventricular internal dimension, systole)",[4]; [8],3.04 ± 0.10 mm
same,"LVPW, d (left ventricular posterior wall thickness, diastole)",[4]; [8],0.71 ± 0.04 mm
same,"LVPW, s (left ventricular posterior wall thickness, systole)",[4]; [8],0.95 ± 0.05 mm
same,cardiac function (EF and FS),"[4]; prenatal 0.1 mg/kg, NS mice, P42, monohydrate",improves cardiac function; also recorded: completely restored to wild type parameters; also recorded: complete restoration of cardiac function
same,cardiac failure on continued administration,"[4]; prenatal regimen continued an additional 2 weeks to P56, wild type and NS mice",induced cardiac failure
